Measured values from patent US7943628B2, “Pyrimidine derivatives” (Pfizer Limited, priority 2005, dated 2011).

Target: T1, histamine H4 receptor (Homo sapiens, UniProt Q9H3N8)
T1 construct: expressed in transfected cells; host or cells: CHO cells
Experiment: H4 binding, method 1 ([3H]-histamine filtration binding on CHO cell membranes)
Settings: for Ki: H4 binding, method 1, Ki calculated from IC50 (Cheng-Prussoff); for inhibition at 10 µM: 1.5 h
Summary of the method: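 Membranes from CHO cells expressing human H4 receptor (20-35 μg/well) incubated 90 min at room temperature with 3 nM [3H]-histamine in 50 mM Tris-HCl pH 7.4, ± competitor. Bound label separated by filtration on PEI-soaked GF/B filters and counted by scintillation; non-specific binding with 10 μM JNJ7777120.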

T1 sequence (Q9H3N8 whole entry): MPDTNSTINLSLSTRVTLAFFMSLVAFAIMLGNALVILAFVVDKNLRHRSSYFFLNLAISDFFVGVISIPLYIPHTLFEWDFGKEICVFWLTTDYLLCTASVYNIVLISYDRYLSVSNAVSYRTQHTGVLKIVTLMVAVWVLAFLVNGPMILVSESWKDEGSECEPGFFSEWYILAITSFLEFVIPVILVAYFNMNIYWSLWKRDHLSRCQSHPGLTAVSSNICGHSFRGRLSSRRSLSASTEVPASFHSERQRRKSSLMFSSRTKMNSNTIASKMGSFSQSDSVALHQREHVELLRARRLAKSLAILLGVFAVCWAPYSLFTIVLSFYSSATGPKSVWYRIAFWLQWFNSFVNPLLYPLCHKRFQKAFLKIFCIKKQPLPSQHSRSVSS

| SMILES | Ki [nM] | other results |
| --- | --- | --- |
| CNC1CN(c2cc(N3CCOC[C@@H]3C)nc(N)n2)C1 [Example 242, 4-[3-(Methylamino)azetidin-1-yl]-6-[(3S)-3-methylmorpholiN^4-yl]pyrimidin-2-amine] | 258 |  |
| CN[C@@H]1CCN(c2cc(NCC3CCC3)nc(N)n2)C1 [Example 243, N^4-(Cyclobutylmethyl)-6-[(3R)-3-(methylamino)pyrrolidin-1-yl]pyrimidine-2,4-diamine] | 266 |  |
| CC(C)(C)CCNc1cc(N2CC(N3CCCC3)C2)ncn1 [Example 244, N-(3,3-Dimethylbutyl)-6-(3-pyrrolidin-1-ylazetidin-1-yl)pyrimidin-4-amine] | 297 |  |
| CN[C@@H]1CCN(c2cc(NCc3cc(F)ccc3F)nc(N)n2)C1 [Example 245, N^4-(2,5-Difluorobenzyl)-6-[(3R)-3-(methylamino)pyrrolidin-1-yl]pyrimidine-2,4-diamine] | 298 |  |
| CC1(N)CCN(c2cc(NCC3CC3)nc(N)n2)C1 (stereo not shown) [Example 246, 6-(3-Amino-3-methylpyrrolidin-1-yl)-N^4-(cyclopropylmethyl)pyrimidine-2,4-diamine] | 301 |  |
| C[C@@H]1CN(c2cc(NCc3ccc(F)cc3)nc(N)n2)CCN1 [Example 247, N^4-(4-Fluorobenzyl)-6-[(3R)-3-methylpiperazin-1-yl]pyrimidine-2,4-diamine] | 312 |  |
| CNc1cc(N2CC(C)(NC)C2)nc(N)n1 [Example 248, N^4-Methyl-6-[3-methyl-3-(methylamino)azetidin-1-yl]pyrimidine-2,4-diamine] | 329 |  |
| CN[C@@H]1CCN(c2cc(NCc3cccc(F)c3)nc(N)n2)C1 [Example 249, N^4-(3-Fluorobenzyl)-6-[(3R)-3-(methylamino)pyrrolidin-1-yl]pyrimidine-2,4-diamine] | 343 |  |
| CNC1CCCN(c2cc(NCC(C)(C)C)nc(N)n2)C1 (stereo not shown) [Example 250, N^4-(2,2-Dimethylpropyl)-6-[3-(methylamino)piperidin-1-yl]pyrimidine-2,4-diamine] | 353 |  |
| C[C@H]1CN(c2cc(NCc3ccccc3)nc(N)n2)CCN1 [Example 251, N^4-Benzyl-6-[(3S)-3-methylpiperazin-1-yl]pyrimidine-2,4-diamine] | 355 |  |
| C[C@H]1CN(c2cc(NC3CC3)ncn2)CCN1 [Example 252, N-Cyclopropyl-6-[(3S)-3-methylpiperazin-1-yl]pyrimidin-4-amine] | 370 |  |
| CN[C@@H]1CCN(c2cc(NCc3ccccc3F)nc(N)n2)C1 [Example 253, N^4-(2-Fluorobenzyl)-6-[(3R)-3-(methylamino)pyrrolidin-1-yl]pyrimidine-2,4-diamine] | 380 |  |
| CN[C@@H]1CCN(c2cc(NCc3ccccc3)nc(N)n2)C1 [Example 254, N^4-Benzyl-6-[(3R)-3-(methylamino)pyrrolidin-1-yl]pyrimidine-2,4-diamine] | 380 |  |
| Nc1nc(NCc2cccc(F)c2F)cc(N2CC[C@@H](N)C2)n1 [Example 255, 6-[(3R)-3-Aminopyrrolidin-1-yl]-N^4-(2,3-difluorobenzyl)pyrimidine-2,4-diamine] | 452 |  |
| CN[C@@H]1CCN(c2cc(NC3CC3)nc(N)n2)C1 [Example 256, N^4-Cyclopropyl-6-[(3R)-3-(methylamino)pyrrolidin-1-yl]pyrimidine-2,4-diamine] | 501 |  |
| CCNc1cc(N2CC(C)(NC)C2)nc(N)n1 [Example 257, N^4-Ethyl-6-[3-methyl-3-(methylamino)azetidin-1-yl]pyrimidine-2,4-diamine] |  | inhibition at 10 µM: 100% |
| CCCNc1cc(N2CCN[C@@H](C)C2)ncn1 [Example 258, 6-[(3S)-3-Methylpiperazin-1-yl]-N-propylpyrimidin-4-amine] | 509 |  |
| C[C@@H]1CN(c2cc(NCc3ccccc3)nc(N)n2)CCN1 [Example 259, N^4-Benzyl-6-[(3R)-3-methylpiperazin-1-yl]pyrimidine-2,4-diamine] | 577 |  |
| CC(C)(C)CNc1cc(N2CCN(C3CCCCC3)CC2)ncn1 [Example 260, 6-(4-Cyclohexylpiperazin-1-yl)-N-(2,2-dimethylpropyl)pyrimidin-4-amine] |  | inhibition at 10 µM: 100% |
| CNC1(C)CN(c2cc(NC(C)C)ncn2)C1 [Example 261, N-Isopropyl-6-[3-methyl-3-(methylamino)azetidin-1-yl]pyrimidin-4-amine] | 617 |  |
| CNc1cc(N2CC[C@@H](NC)C2)ncn1 [Example 262, N-Methyl-6-[(3R)-3-(methylamino)pyrrolidin-1-yl]pyrimidin-4-amine] | 623 |  |
| CNC1CN(c2cc(N3CCOC[C@H]3C)nc(N)n2)C1 [Example 263, 4-[3-(Methylamino)azetidin-1-yl]-6-[(3R)-3-methylmorpholiN^4-yl]pyrimidin-2-amine] | 626 |  |
| CCCNc1cc(N2CCC(C)(N)C2)nc(N)n1 (stereo not shown) [Example 264, 6-(3-Amino-3-methylpyrrolidin-1-yl)-N^4-propylpyrimidine-2,4-diamine] | 704 |  |

| SMILES | Ki [nM] | other results |
| --- | --- | --- |
| CCNc1cc(N2CCC(C)(N)C2)nc(N)n1 (stereo not shown) [Example 265, 6-(3-Amino-3-methylpyrrolidin-1-yl)-N^4-ethylpyrimidine-2,4-diamine] | 705 |  |
| CCCNc1cc(N2CCC(N)CC2)nc(N)n1 [Example 266, 6-(4-Aminopiperidin-1-yl)-N^4-propylpyrimidine-2,4-diamine] | 708 |  |
| C[C@@H]1CN(c2cc(NCc3cccc(F)c3)nc(N)n2)CCN1 [Example 267, N^4-(3-Fluorobenzyl)-6-[(3R)-3-methylpiperazin-1-yl]pyrimidine-2,4-diamine] | 715 |  |
| CNC1CN(c2cc(N3CCOCC3)nc(N)n2)C1 [Example 268, 4-[3-(Methylamino)azetidin-1-yl]-6-morpholin-4-ylpyrimidin-2-amine] |  | inhibition at 10 µM: 16% |
| Nc1nc(NC2CC2)cc(N2CCC(N)CC2)n1 [Example 269, 6-(4-Aminopiperidin-1-yl)-N^4-cyclopropylpyrimidine-2,4-diamine] | 839 |  |
| CN[C@@H]1CCN(c2cc(NCc3c(F)cccc3F)nc(N)n2)C1 [Example 271, N^4-(2,6-Difluorobenzyl)-6-[(3R)-3-(methylamino)pyrrolidin-1-yl]pyrimidine-2,4-diamine] | 870 |  |
| CN[C@@H]1CCN(c2cc(NCc3cccc(F)c3F)nc(N)n2)C1 [Example 272, N^4-(2,3-Difluorobenzyl)-6-[(3R)-3-(methylamino)pyrrolidin-1-yl]pyrimidine-2,4-diamine] | 901 |  |
| CN[C@@H]1CCN(c2cc(NCc3cc(F)cc(F)c3)nc(N)n2)C1 [Example 273, N^4-(3,5-Difluorobenzyl)-6-[(3R)-3-(methylamino)pyrrolidin-1-yl]pyrimidine-2,4-diamine] | 950 |  |
| CC(C)(C)CCNc1cc(N[C@H]2CCN(Cc3ccc(CO)o3)C2)ncn1 [Example 274, (5-{[(3S)-3-({6-[(3,3-Dimethylbutyl)amino]pyrimidin-4yl}amino)pyrrolidin--1-yl]methyl}-2-furyl)methanol] | 1070 |  |
| CN[C@@H]1CCN(c2cc(N3CC(F)(F)C3)nc(N)n2)C1 [Example 275, 4-(3,3-Difluoroazetidin-1-yl)-6-[(3R)-3-(methylamino)pyrrolidin-1-yl]pyrimidin-2-amine] | 1160 |  |
| CNC1CN(c2cc(NCC3CC3)nc(NCC3CC3)n2)C1 [Example 276, N,N′-Bis(cyclopropylmethyl)-6-[3-(methylamino)azetidin-1-yl]pyrimidine-2,4-diamine] |  | Method 1, % at 3.16 μM (at 3.16 μM): 14% at 3.16 μM |
| CN[C@@H]1CCN(c2cc(NCc3ccc(F)c(F)c3)nc(N)n2)C1 [Example 277, N^4-(3,4-Difluorobenzyl)-6-[(3R)-3-(methylamino)pyrrolidin-1-yl]pyrimidine-2,4-diamine] | 1230 |  |
| CNC1CCCN(c2cc(NCC(C)C)nc(N)n2)C1 (stereo not shown) [Example 278, N^4-Isobutyl-6-[3-(methylamino)piperidin-1-yl]pyrimidine-2,4-diamine] | 1260 |  |
| CC(C)(C)CCNc1cc(N2CCCNCC2)ncn1 [Example 280, 6-(1,4-Diazepan-1-yl)-N-(3,3-dimethylbutyl)pyrimidin-4-amine] | 1430 |  |
| c1ccc(CNc2cc(N[C@H]3CCNC3)ncn2)cc1 [Example 281, N-Benzyl-N′-[(3S)-pyrrolidin-3-yl]pyrimidine-4,6-diamine] | 1550 |  |
| CN[C@@H]1CCN(c2cc(N3CCOCC3)nc(N)n2)C1 [Example 282, 4-[(3R)-3-(Methylamino)pyrrolidin-1-yl]-6-morpholin-4-ylpyrimidin-2-amine] | 1660 |  |
| Nc1nc(NCC2CC2)cc(N2CCC(N)CC2)n1 [Example 283, 6-(4-Aminopiperidin-1-yl)-N^4-(cyclopropylmethyl)pyrimidine-2,4-diamine] | 1700 |  |
| CNc1cc(N2CCC(N)CC2)nc(N)n1 [Example 284, 6-(4-Aminopiperidin-1-yl)-N^4-methylpyrimidine-2,4-diamine] | 1720 |  |
| c1nc(NCC2CC2)cc(N2CCNCC2)n1 [Example 285, N-(Cyclopropylmethyl)-6-piperazin-1-ylpyrimidin-4-amine] | 1800 |  |
| CN[C@@H]1CCN(c2cc(NC(C)C)nc(N)n2)C1 [Example 286, N^4-lsopropyl-6-[(3R)-3-(methylamino)pyrrolidin-1-yl]pyrimidine-2,4-diamine] | 1940 |  |
| CC(C)(C)CNc1cc(N2CC(N3CCOCC3)C2)nc(N)n1 [Example 287, N^4-(2,2-Dimethylpropyl)-6-(3-morpholin-4-ylazetidin-1-yl)pyrimidine-2,4-diamine] | 2000 |  |
| CN1CCCC(Nc2cc(NCCC(C)(C)C)ncn2)C1 (stereo not shown) [Example 288, N-(3,3-Dimethylbutyl)-N′-(1-methylpiperidin-3-yl)pyrimidine-4,6-diamine] | 2400 |  |
| CC(C)(C)CCNc1cc(N[C@H]2CCN(Cc3ccccc3)C2)ncn1 [Example 289, N-[(3S)-1-Benzylpyrrolidin-3-yl]-N′-(3,3-dimethylbutyl)pyrimidine-4,6-diamine] |  | inhibition at 10 µM: 44% |
